Patent US20250002450A1, “CATIONIC STEROID COMPOUNDS, METHOD OF OBTAINING THEREOF, FORMULATIONS COMPRISING THEREOF AND THEIR USES” (UNIVERSIDADE DO PORTO, priority 2021, published 2025)
Converted amounts (≈) assume the structure as drawn.

What was measured:
C. jejuni P5/4 = test: Antibacterial MIC/MBC (broth microdilution); assay type: cell-based, Campylobacter jejuni; details: Campylobacter jejuni
Source text: (§1) Twelve reference bacterial strains and nine MDR clinically relevant bacterial strains were used in this study. Gram-negative bacteria comprised reference strains E. coli ATCC 25922, K. pneumoniae ATCC 13883, Salmonella enterica serovar Typhimurium CECT 443, P. aeruginosa ATCC 27853, A. baumannii ATCC 19606, C. jejuni ATCC 33560 (ATCC—American Type Culture Collection; CECT—Colección Espanola de Cultivos Tipo); clinical isolates E. coli SA/2, an extended-spectrum β-lactamase (ESBL)-producing strain and P. aeruginosa 33b, a pan-drug-resistant isolate; and animal isolates C. jejuni P5/4, a ciprofloxacin-resistant strain, C. jejuni 4432, C. jejuni 4433, C. jejuni 4448, and E. coli 2252, a COL-resistant strain [42]. Gram-positive strains included S. aureus ATCC 29213, E. faecalis ATCC 29212, S. pyogenes ATCC 19615, and environmental isolates methicillin-resistant S. aureus (MRSA) 66/1 [43], and VAN-resistant enterococci (VRE) E. faecalis B3/101 [44]. Gram-negative fish pathogens Yersinia ruckeri ATCC 29473, Listonella anguillarum ATCC 1924, and Tenacibaculum maritimum ATCC 43397 were also included.
(§2) Strains were kept in Trypto-Casein Soy agar (TSA—Biokar Diagnostics, Allone, Beauvais, France) slants and, before each assay, were sub-cultured in Mueller-Hinton agar (MHA—Biokar Diagnostics, Allone, Beauvais, France). Y. ruckeri ATCC 29473 and L. anguillarum ATCC 1924 were kept in Nutrient Agar (Condalab, Madrid, Spain) and T. maritimum ATCC 43397 was kept in TMM agar (Condalab, Madrid, Spain), and were sub-cultured in the respective culture media before each assay. For S. pyogenes ATCC 19615, CAMHB was supplemented with 3.75% lysed horse blood (LBH—Oxoid, Basingstoke, England), whereas for C. jejuni it was supplemented with 2.5% LHB. Colony-forming unit counts of the inoculum were conducted to determine the initial inoculum size (which should be approximately 5×10^5 CFU/mL). Sterility and growth controls were included in each assay. The 96-well U-shaped untreated polystyrene microtiter plates were incubated for 20 h at 37 degrees C. (42 degrees C. for C. jejuni, in a microaerophilic atmosphere) and the minimal inhibitory concentration (MIC) was determined as the lowest concentration of compound that prevented visible growth. The minimal bactericidal concentration (MBC) was determined by spreading 100 μL of the content of the wells with no visible growth on MH plates. The MBC was determined as the lowest concentration of compound that killed 99.9% of the initial inoculum after overnight incubation at 37 degrees C. Two independent assays were performed for reference and MDR strains.
(§3) An initial screening of the antibacterial activity of the compounds was performed by the Kirby-Bauer disk diffusion method, as recommended by the Clinical and Laboratory Standards Institute (CLSI). Briefly, sterile 6 mm blank paper disks (Oxoid, Basingstoke, England) impregnated with 15 μg of each compound were placed on inoculated MH agar plates. A blank disk with dimethylsulfoxide (DMSO) was used as a negative control. MH inoculated plates were incubated for 18-20 h at 37 degrees C. At the end of incubation, the inhibition halos where measured. The MIC was used to determine the antibacterial activity of each compound, in accordance with the recommendations of the CLSI. Two-fold serial dilutions of the compounds were prepared in Mueller-Hinton Broth 2 (MHB2—Sigma-Aldrich, St. Louis, MO, USA) within the concentration range of 0.062-64 μg/mL. CTX ranging between 0.031-16 μg/mL was used as a control. Sterility and growth controls were included in each assay. Purity checks and colony counts of the inoculum suspensions were also performed in order to ensure that the final inoculum density closely approximates the intended number (5×10^5 CFU/mL). The MIC was determined as the lowest concentration of compound that inhibited growth of the bacteria. The MBC was assessed by spreading 10 μL of culture collected from wells showing no visible growth on MH agar plates. […]

C. jejuni 4448 = test: Antibacterial MIC/MBC (broth microdilution); assay type: cell-based, Campylobacter jejuni; details: Campylobacter jejuni
Source text: as §1, §2, §3

C. jejuni 4432 = test: Antibacterial MIC/MBC (broth microdilution); assay type: cell-based, Campylobacter jejuni; details: Campylobacter jejuni
Source text: as §1, §2, §3

C. jejuni 4433 = test: Antibacterial MIC/MBC (broth microdilution); assay type: cell-based, Campylobacter jejuni; details: Campylobacter jejuni
Source text: as §1, §2, §3

[1] = tested on: Gram-negative and Gram-positive bacteria; test: Antibacterial activity, whole strain panel; assay type: cell-based; details: Gram-negative bacteria
Source text: as §1, §2, §3

[2] = tested on: Acinetobacter baumannii ATCC 19606; test: Antibacterial MIC/MBC (broth microdilution); assay type: cell-based
Method in brief: (§4)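 MIC = lowest compound concentration with no visible growth after 20 h at 37 degrees C in MHB2 microdilution (0.062-64 μg/mL; ~5×10^5 CFU/mL). MBC = lowest concentration giving 99.9% kill of the initial inoculum when no-growth wells were subcultured on MH agar overnight.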

[3] = tested on: Pseudomonas aeruginosa ATCC 27853; test: Antibacterial MIC/MBC (broth microdilution); assay type: cell-based; details: ATCC27853, Pseudomonas aeruginosa ATCC 27853
Method in brief: as §4

CCN(CC)CCNC(=O)CC[C@@H](C)[C@H]1CC[C@H]2[C@@H]3CC[C@@H]4C[C@H](O)CC[C@]4(C)[C@H]3C[C@H](O)[C@]12C [Compound 6, (R)—N-(2-(diethylamino)ethyl)-4-((3R,5R,8R,9S,10S,12S,13R,14S,17R)-3,12-dihydroxy-10,13-dimethylhexadecahydro-1H-cyclopenta[a]phenanthren-17-yl)pentanamide]
MBC (C. jejuni P5/4; read-out: MBC): > 64 µg/mL
MIC (C. jejuni P5/4; read-out: MIC): > 64 µg/mL
MBC (C. jejuni 4448; read-out: MBC): > 64 µg/mL
MIC (C. jejuni 4448; read-out: MIC): > 64 µg/mL
MBC (C. jejuni 4432; read-out: MBC): > 64 µg/mL
MIC (C. jejuni 4432; read-out: MIC): > 64 µg/mL
MBC (C. jejuni 4433; read-out: MBC): > 64 µg/mL
MIC (C. jejuni 4433; read-out: MIC): > 64 µg/mL
activity against Gram-negative bacteria (in words) [1]: exhibited activities
antibacterial activity (in words) ([2]; A. baumannii ATCC 19606): displayed an inhibitory effect
MBC ([2]; ATCC19606, Acinetobacter baumannii ATCC 19606, read-out: MBC): 64 µg/mL (≈ 130 µM)
MIC ([2]; ATCC19606, Acinetobacter baumannii ATCC 19606, read-out: MIC): 64 µg/mL (≈ 130 µM)
MBC ([3]; read-out: MBC): > 64 µg/mL
MIC ([3]; read-out: MIC): > 64 µg/mL
